The NIST ThermoML archive (doi:10.1021/je0505366)
Numbers after ± are expanded uncertainties.

Key:
[1] = Liquid; for mass density: 101.33 kPa; for vapor or sublimation pressure: 383.15 K, Ebulliometric method (Recirculating still)
[2] = refractive index (Na D-line) (dimensionless); settings: 101.33 kPa, Liquid, Standard Abbe refractometry

Compound | mass density ([1]; 293.15 K) | refractive index ([2]; 293.15 K) | vapor or sublimation pressure [1] | also measured
Cc1ccccc1 [toluene] | 866.78 ± 0.23 kg/m3 | 1.496 ± 0.0007 | – | –
CCCCCCCC [octane] | – | – | 64.09 ± 0.07 kPa | mass density ([1]; 298.15 K): 698.49 ± 0.39 kg/m3; refractive index ([2]; 298.15 K): 1.3946 ± 0.0007
Nc1ccccc1 [aniline] | 1021.72 ± 0.18 kg/m3 | 1.5862 ± 0.0007 | 9.21 ± 0.02 kPa | –
O [water] | – | 1.3336 ± 0.0007 | – | –
NC1CCCCC1 [cyclohexylamine] | – | – | – | mass density ([1]; 303.15 K): 858.2 ± 0.23 kg/m3; refractive index ([2]; 288.15 K): 1.4624 ± 0.0007
